Here are results for 16 compounds from patent US9783552B2, “Soluble guanylate cyclase activators” (MERCK SHARP & DOHME CORP., priority 2013, dated 2017).

The target in this assay is T1, sGC α1/β1 heterodimer (Homo sapiens, UniProt Q02108+Q02153).
T1 construct: expressed in transfected cells
T1 sequence (Q02108 1-690): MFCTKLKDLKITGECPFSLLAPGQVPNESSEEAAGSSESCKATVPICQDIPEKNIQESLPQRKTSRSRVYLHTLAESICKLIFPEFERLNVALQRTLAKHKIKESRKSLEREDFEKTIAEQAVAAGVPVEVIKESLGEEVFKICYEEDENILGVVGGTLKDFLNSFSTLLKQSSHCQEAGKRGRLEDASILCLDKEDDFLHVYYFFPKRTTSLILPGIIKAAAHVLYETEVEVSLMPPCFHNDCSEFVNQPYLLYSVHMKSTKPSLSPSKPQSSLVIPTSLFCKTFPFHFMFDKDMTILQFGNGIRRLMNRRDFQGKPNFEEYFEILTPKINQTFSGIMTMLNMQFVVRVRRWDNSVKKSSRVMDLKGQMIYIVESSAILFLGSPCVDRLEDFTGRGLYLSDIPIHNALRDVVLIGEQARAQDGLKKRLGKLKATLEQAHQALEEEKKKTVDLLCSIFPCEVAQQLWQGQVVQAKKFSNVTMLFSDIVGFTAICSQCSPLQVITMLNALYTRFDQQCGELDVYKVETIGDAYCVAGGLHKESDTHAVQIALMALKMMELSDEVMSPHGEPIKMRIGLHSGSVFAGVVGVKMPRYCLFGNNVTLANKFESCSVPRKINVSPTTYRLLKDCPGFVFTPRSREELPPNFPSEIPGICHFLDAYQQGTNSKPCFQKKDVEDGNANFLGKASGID
T1 sequence (Q02153 1-619): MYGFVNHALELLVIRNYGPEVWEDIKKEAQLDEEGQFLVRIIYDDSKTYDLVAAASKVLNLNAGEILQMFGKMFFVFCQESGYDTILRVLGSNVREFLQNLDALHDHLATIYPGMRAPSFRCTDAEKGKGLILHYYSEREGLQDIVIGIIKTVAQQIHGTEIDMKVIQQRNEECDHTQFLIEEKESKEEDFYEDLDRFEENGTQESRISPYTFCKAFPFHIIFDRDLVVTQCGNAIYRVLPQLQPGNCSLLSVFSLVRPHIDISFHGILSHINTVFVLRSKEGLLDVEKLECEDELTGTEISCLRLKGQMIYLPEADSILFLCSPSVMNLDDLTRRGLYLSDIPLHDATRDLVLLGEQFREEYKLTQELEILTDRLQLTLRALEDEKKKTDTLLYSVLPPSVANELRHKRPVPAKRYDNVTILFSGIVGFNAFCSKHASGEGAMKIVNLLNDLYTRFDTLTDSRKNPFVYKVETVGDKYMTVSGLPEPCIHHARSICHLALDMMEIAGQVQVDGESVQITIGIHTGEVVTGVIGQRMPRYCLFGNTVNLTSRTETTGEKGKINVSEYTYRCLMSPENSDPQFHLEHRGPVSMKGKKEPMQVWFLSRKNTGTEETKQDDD
Briefly: Cell-Based sGC Functional Assay (CASA Assay). The note with it: CHO-K1/sGC cells; for EC50: intracellular cGMP by HTRF, 1 hr at 37° C., IP from 4P fit, presence or absence of 1 μM DETA-NO not given; for Emax: cGMP as percentage of maximum cGMP production of Compound A (=100% activation), read-out: % ACT (percent activation). In short, it runs like this: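 CHO-K1 cells stably expressing human sGC α1/β1 were incubated with compound (2.5% DMSO) for 1 hr at 37 °C with 0.5 mM IBMX, with or without 1 μM DETA-NO. Intracellular cGMP was measured by HTRF and expressed as % of the maximal cGMP produced by a reference sGC heme-dependent activator. IP and maximum fold induction came from a 4-parameter fit.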

Broadly, the EC50 is the midpoint of the concentration-response curve. A lower EC50 goes with a more potent agent.

In the case of `[2H]C([2H])([2H])n1ncc2c(-c3nc(N)c4c(n3)NC(=O)C4(C)c3cccc(OC)c3)nc(CCC(F)(F)C(F)(F)F)nc21` (single isomer, unassigned) [Example 14, 4-Amino-5-(3-methoxyphenyl)-5-methyl-2-(6-(3,3,4,4,4-pentafluorobutyl)-1-trideuteriomethyl-1H-pyrazolo[3,4-d]pyrimidin-4-yl)-5H-pyrrolo[2,3-d]pyrimidin-6(7H)-one], the EC50 amounted to 21 nM and the Emax came to 110%.
In the case of `[2H]C([2H])([2H])n1ccc2c(-c3nc(N)c4c(n3)NC(=O)C4(C)c3ccccc3)nc(CCC(F)(F)C(F)(F)F)nc21` (single isomer, unassigned) [Example 60, 4-Amino-5-methyl-2′-(3,3,4,4,4-pentafluorobutyl)-5-phenyl-7′-trideuteriomethyl-5H,7′H-[2,4′-bipyrrolo[2,3-d]pyrimidin]-6(7H)-one], the EC50 was found to be 47 nM and the Emax stood at 106%.
With `[2H]C([2H])([2H])n1nnc2c(-c3nc(N)c4c(n3)NC(=O)C4(C)c3ccc(Cl)cc3)nc(CCC(F)(F)C(F)(F)F)nc21` (single isomer, unassigned) [Example 70, 4-Amino-5-(4-chlorophenyl)-5-methyl-2-(5-(3,3,4,4,4-pentafluorobutyl-3-trideuteriomethyl)-3H-[1,2,3]triazolo[4,5-d]pyrimidin-7-yl)-5H-pyrrolo[2,3-d]pyrimidin-6(7H)-one], a half-maximal effect (EC50) was put at 327 nM and the Emax was 95%.
On the same counts, the results for `CCOC(=O)C1(C2CC2)C(=O)Nc2nc(-c3nc(CCC(F)(F)C(F)(F)F)nc4c3cnn4C)nc(N)c21` (single isomer, unassigned) [Example 26, Ethyl 4-amino-5-cyclopropyl-2-(1-methyl-6-(3,3,4,4,4-pentafluorobutyl)-1H-pyrazolo[3,4-d]pyrimidin-4-yl)-6-oxo-6,7-dihydro-5H-pyrrolo[2,3-d]pyrimidine-5-carboxylate] are 830 nM and 93%.
For `[2H]C([2H])([2H])n1ncc2c(-c3nc(N)c4c(n3)NC(=O)C4(C)C(=O)NCC)nc(CCC(F)(F)C(F)(F)F)nc21` (single isomer, unassigned) [Example 39, 4-Amino-N-ethyl-5-methyl-2-(6-(3,3,4,4,4-pentafluorobutyl)-1-trideuteriomethyl-1H-pyrazolo[3,4-d]pyrimidin-4-yl)-6-oxo-6,7-dihydro-5H-pyrrolo[2,3-d]pyrimidine-5-carboxamide], a half-maximal effect (EC50) was put at 43 nM and the Emax was 104%.
Regarding `COc1ccc(C2(C)C(=O)Nc3nc(-c4nc(CCCC(F)(F)F)nc5c4cnn5C)nc(N)c32)cc1F` (single isomer, unassigned) [Example 15, 4-Amino-5-(3-fluoro-4-methoxyphenyl)-5-methyl-2-(1-methyl-6-(4,4,4-trifluorobutyl)-1H-pyrazolo[3,4-d]pyrimidin-4-yl)-5H-pyrrolo[2,3-d]pyrimidin-6(7H)-one], the EC50 came out at 52 nM and the Emax came to 113%.
`COc1ccc(C2(C)C(=O)Nc3nc(-c4nc(CCC(F)(F)C(F)(F)F)nc5c4cnn5C)nc(N)c32)cc1F` (single isomer, unassigned) [Example 16, 4-Amino-5-(3-fluoro-4-methoxyphenyl)-5-methyl-2-(1-methyl-6-(3,3,4,4,4-pentafluorobutyl)-1H-pyrazolo[3,4-d]pyrimidin-4-yl)-5H-pyrrolo[2,3-d]pyrimidin-6(7H)-one]: the concentration giving a half-maximal response (EC50) was 15 nM and the Emax is 112%.
In the case of `Cn1ncc2c(-c3nc(N)c4c(n3)NC(=O)C4(C)NC(=O)c3ccccn3)nc(CCC(F)(F)C(F)(F)F)nc21` (centres unmarked) [Example 51, N-(4-Amino-5-methyl-2-(1-methyl-6-(3,3,4,4,4-pentafluorobutyl)-1H-pyrazolo[3,4-d]pyrimidin-4-yl)-6-oxo-6,7-dihydro-5H-pyrrolo[2,3-d]pyrimidin-5-yl)picolinamide], the EC50 worked out at 746 nM and the Emax is 109%.
On the same counts, the results for `Cn1ncc2c(-c3nc(N)c4c(n3)NC(=O)C4(C)C(=O)NC3CC3)nc(Cc3cccc(F)c3F)nc21` (single isomer, unassigned) [Example 40, 4-Amino-N-cyclopropyl-2-(6-(2,3-difluorobenzyl)-1-methyl-1H-pyrazolo[3,4-d]pyrimidin-4-yl)-5-methyl-6-oxo-6,7-dihydro-5H-pyrrolo[2,3-d]pyrimidine-5-carboxamide] are 55 nM and 121%.
In the case of `[2H]C([2H])([2H])n1ncc2c(-c3nc(N)c4c(n3)NC(=O)C4(C(=O)NCC)C3CC3)nc(CCC(F)(F)C(F)(F)F)nc21` (single isomer, unassigned) [Example 29, 4-Amino-5-cyclopropyl-N-ethyl-2-(6-(3,3,4,4,4-pentafluorobutyl)-1-trideuteriomethyl-1H-pyrazolo[3,4-d]pyrimidin-4-yl)-6-oxo-6,7-dihydro-5H-pyrrolo[2,3-d]pyrimidine-5-carboxamide], a half-maximal response (EC50) required 135 nM and the Emax is 131%.
Taken in the same sequence, the figures for `[2H]C([2H])([2H])n1ncc2c(-c3nc(O)c4c(n3)NC(=O)C4(C)c3ccc(F)cc3)nc(CCC(F)(F)C(F)(F)F)nc21` (centres unmarked) [Example 48, 5-(4-Fluorophenyl)-4-hydroxy-5-methyl-2-(6-(3,3,4,4,4-pentafluorobutyl)-1-trideuteriomethyl-1H-pyrazolo[3,4-d]pyrimidin-4-yl)-5H-pyrrolo[2,3-d]pyrimidin-6(7H)-one] were 664 nM and 93%.
With `CC1(c2ccccc2)C(=O)Nc2nc(-c3nc(CCC(F)(F)C(F)(F)F)nc4[nH]ccc34)nc(N)c21` (single isomer, unassigned) [Example 65, 4-Amino-5-methyl-2′-(3,3,4,4,4-pentafluorobutyl)-5-phenyl-5H,7′H-[2,4′-bipyrrolo[2,3-d]pyrimidin]-6(7H)-one], a half-maximal effect (EC50) was put at 255 nM and the Emax stood at 102%.
As for `Cn1ncc2c(-c3nc(N)c4c(n3)NC(=O)C4(C)N)nc(CCC(F)(F)C(F)(F)F)nc21` (single isomer, unassigned) [Example 50, 4,5-Diamino-5-methyl-2-(1-methyl-6-(3,3,4,4,4-pentafluorobutyl)-1H-pyrazolo[3,4-d]pyrimidin-4-yl)-5H-pyrrolo[2,3-d]pyrimidin-6(7H)-one], a half-maximal response (EC50) required 1240 nM and the Emax worked out at 101%.
On the same counts, the results for `Cn1nnc2c(-c3nc(N)c4c(n3)NC(=O)C4(C)c3ccc(F)cc3)nc(Cc3cccc(F)c3F)nc21` (single isomer, unassigned) [Example 66] are 156 nM and 69%.
`CCn1ncc2c(-c3nc(N)c4c(n3)NC(=O)C4(C)c3ccc(F)cc3)nc(CCCC(F)(F)F)nc21` (single isomer, unassigned) [Example 20, 4-Amino-2-(1-ethyl-6-(4,4,4-trifluorobutyl)-1H-pyrazolo[3,4-d]pyrimidin-4-yl)-5-(4-fluorophenyl)-5-methyl-5H-pyrrolo[2,3-d]pyrimidin-6(7H)-one]: the EC50 turned out to be 143 nM and the Emax came out at 123%.
Consider `[2H]C([2H])([2H])OC1(C)C(=O)Nc2nc(-c3nc(CCC(F)(F)C(F)(F)F)nc4c3cnn4C)nc(N)c21` (centres unmarked) [Example 57, 4-Amino-5-methyl-5-trideuteriomethoxy-2-(1-methyl-6-(3,3,4,4,4-pentafluorobutyl)-1H-pyrazolo[3,4-d]pyrimidin-4-yl)-5H-pyrrolo[2,3-d]pyrimidin-6(7H)-one], for which it took 113 nM to reach a half-maximal effect (EC50) and the Emax was found to be 139%.
